Target: BTK (Homo sapiens, UniProt Q06187)
Assay: Omnia assay for potency assessment against BTK
Assay type: biochemical
Conditions: 30 min pre-incubation; read-out: IC50_APP BTK
From the text: B. Omnia Assay Protocol for Potency Assessment Against BTK
Below describes the protocol using EGFR-WT and EGFR-T790M/L858R and the protocol BTK-optimized reagent conditions then follow.
The mechanics of the assay platform are best described by the vendor (Invitrogen, Carlsbad, Calif.) on their website at the following URL: http://www.invitrogen.com/content.cfm?pageid=11338 or http://www.invitrogen.com/site/us/en/home/Products-and-Services/Applications/Drug-Discovery/Target-and-Lead-Identification-and-Validation/KinaseBiology/KB-Misc/Biochemical-Assays/Omnia-Kinase-Assays.html.
Briefly, 10× stocks of EGFR-WT (PV3872) from Invitrogen and EGFR-T790M/L858R (40350) from BPS Bioscience, San Diego, Calif., 1.13×ATP (AS001A) and appropriate Tyr-Sox conjugated peptide substrates (KCZ1001) were prepared in 1× kinase reaction buffer consisting of 20 mM Tris, pH 7.5, 5 mM MgCl2, 1 mM EGTA, 5 mM β-glycerophosphate, 5% glycerol (10× stock, KB002A) and 0.2 mM DTT (DS001A). 5 μL of each enzyme were pre-incubated in a Corning (#3574) 384-well, white, non-binding surface microtiter plate (Corning, N.Y.) for 30 min. at 27° C. with a 0.5 μL volume of 50% DMSO and serially diluted compounds prepared in 50% DMSO. Kinase reactions were started with the addition of 45 μL of the ATP/Tyr-Sox peptide substrate mix and monitored every 30-90 seconds for 60 minutes at λex360/λem485 in a Synergy^4 plate reader from BioTek (Winooski, Vt.). At the conclusion of each assay, progress curves from each well were examined for linear reaction kinetics and fit statistics (R^2, 95% confidence interval, absolute sum of squares). Initial velocity (0 minutes to ˜30 minutes) from each reaction was determined from the slope of a plot of relative fluorescence units vs time (minutes) and then plotted against inhibitor concentration to estimate IC50 from log [Inhibitor] vs Response, Variable Slope model in GraphPad Prism from GraphPad Software (San Diego, Calif.).
The modified BTK-optimized reagent conditions for the above protocol are:
[BTK]=5 nM, [ATP]=[…], [Y5-Sox]=[…] (ATP KMapp˜[…]).
The reported IC50_APP and IC50 values are in units of nM.

Chain of BTK (Q06187 whole entry): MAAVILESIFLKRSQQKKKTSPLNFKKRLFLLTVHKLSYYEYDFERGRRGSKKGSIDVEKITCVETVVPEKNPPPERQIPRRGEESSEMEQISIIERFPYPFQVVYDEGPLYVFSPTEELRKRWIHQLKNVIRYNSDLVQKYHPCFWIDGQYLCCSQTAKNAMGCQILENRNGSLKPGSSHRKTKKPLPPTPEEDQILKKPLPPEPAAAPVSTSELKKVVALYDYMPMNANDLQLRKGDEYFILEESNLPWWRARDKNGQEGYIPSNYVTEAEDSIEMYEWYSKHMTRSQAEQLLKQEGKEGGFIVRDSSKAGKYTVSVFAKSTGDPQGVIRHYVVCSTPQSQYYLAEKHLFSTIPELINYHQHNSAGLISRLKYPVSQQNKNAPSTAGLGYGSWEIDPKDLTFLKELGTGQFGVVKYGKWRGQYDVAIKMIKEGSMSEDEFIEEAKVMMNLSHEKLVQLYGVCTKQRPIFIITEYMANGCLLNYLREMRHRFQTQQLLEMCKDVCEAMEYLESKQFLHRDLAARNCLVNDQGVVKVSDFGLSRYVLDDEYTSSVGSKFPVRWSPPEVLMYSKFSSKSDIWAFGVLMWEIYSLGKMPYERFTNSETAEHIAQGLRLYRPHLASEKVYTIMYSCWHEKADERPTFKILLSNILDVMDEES

`C=CC(=O)N1CCC(Sc2nc(Nc3ncc(C#N)s3)cc(N3CCN(C)CC3)n2)CC1` [II-2, 2-(2-(1-Acryloylpiperidin-4-ylthio)-6-(4-methylpiperazin-1-yl)pyrimidin-4-ylamino)thiazole-5-carbonitrile] was tested, and the IC50 was 0.572 nM.
